{
  "source": "patent US7759335B2",
  "about": "“Cannabinoid receptor antagonists/inverse agonists useful for treating metabolic disorders, including obesity and diabetes” (Jenrm Discovery, Inc., priority 2008, dated 2010)",
  "origin": "cited, not measured here",
  "details": "patients with type 2 diabetes not treated with other anti-diabetic medications; after six months of treatment; baseline value 7.9; placebo reduction 0.3%",
  "data": [
    {"smiles": "Cc1c(C(=O)NN2CCCCC2)nn(-c2ccc(Cl)cc2Cl)c1-c1ccc(Cl)cc1", "note": "[rimonabant]", "values": [
      {"measurement": "HbA1c levels lowered", "value": 0.8, "unit": "%"}
    ]}
  ]
}
